Test results reported in US20110152166A1, “METHOD OF MODULATION OF PROTEIN PHOSPHORYLATION-DEPENDENT CONFORMATIONAL TRANSITIONS WITH LOW MOLECULAR WEIGHT COMPOUNDS” (priority 2006, published 2011).
Ends that are not written are not given here.

Legend:
[1] = molecular target: T1, PDK1 (Homo sapiens, UniProt O15530); conditions: in the presence of PIFtide (Biondi et al., 2000); cited from earlier work
T1 sequence (O15530 1-556): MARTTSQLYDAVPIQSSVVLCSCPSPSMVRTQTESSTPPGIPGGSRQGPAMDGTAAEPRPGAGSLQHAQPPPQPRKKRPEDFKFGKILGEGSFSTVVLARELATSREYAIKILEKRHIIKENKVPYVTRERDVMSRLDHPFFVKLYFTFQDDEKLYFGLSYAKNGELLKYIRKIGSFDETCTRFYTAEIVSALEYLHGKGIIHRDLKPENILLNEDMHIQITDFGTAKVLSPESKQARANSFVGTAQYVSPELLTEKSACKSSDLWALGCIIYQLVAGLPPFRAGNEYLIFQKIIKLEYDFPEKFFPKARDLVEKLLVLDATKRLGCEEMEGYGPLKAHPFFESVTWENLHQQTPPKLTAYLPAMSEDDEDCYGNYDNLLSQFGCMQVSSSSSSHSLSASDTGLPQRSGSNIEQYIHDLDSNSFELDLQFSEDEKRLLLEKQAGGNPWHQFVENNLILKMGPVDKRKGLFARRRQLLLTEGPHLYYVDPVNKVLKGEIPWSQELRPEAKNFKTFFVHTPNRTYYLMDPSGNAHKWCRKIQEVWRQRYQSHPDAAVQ

[2] = molecular target: GST-S6K11-365 (Rattus norvegicus, UniProt P67999); test: Surface plasmon resonance, S6K1 binding to tail peptides; set-up: made in house; host or cells: COS cells (printed 'COST'), co-transfected with pCMV5-myc-PDK1
Method: (§1) FIG. 13. The tail phosphate synergistically enhances the ability of the HM phosphate to activate S6K, dependent on the tail phosphate-binding site. (A) The kinase activity of purified kinase domain of S6K1 (S6K11-364), pre-phosphorylated by PDK1 in the activation loop, was determined in the presence of increasing concentrations of synthetic S6K1 tail peptide (residues 366-395) that was either non-phosphorylated (S371/T389), phosphorylated at Ser371 (pS371/T389) or Thr389 (5371/pT389) or phosphorylated at both sites (pS371/pT389). (B) The kinase activity of S6K11-364 and S6K11-364K144N, either pre-phosphorylated or not by PDK1, was determined in the absence or presence of 90 μM S371/pT389 or pS371/pT389. (C) pS371/pT389 S6K1 tail peptide was biotinylated and used to coat streptavidin Sensor Chips. The chips were thereafter analyzed for binding to purified GST-S6K11-365 or GST-56K11-365K144N. (A-C) Experiments were repeated at least 3 times and activity data (expressed as percent) are means±SD.
(§2) Sixty 146 cm^2 dishes with COST cells were co-transfected with pEBG-2T-S6K1-365 and pCMV5-myc-PDK1 (ratio 3:1) using calcium phosphate precipitation or with pEBG-2T-PKCζ and pCMV5-myc-PDK1 (ratio 3:1) using Fugene HD according to the manufacturers Instructions. Two days after transfection, the cells were harvested in lysis buffer as described above. […]

[3] = test system: GST-S6K11-365; test: as above; set-up: species or system rat; conditions: K144N versus wt
Method: as §1, §2

[4] = molecular target: T1, PDK1; test: PDK1 kinase activity with S6K tail peptides; format: biochemical
Method: FIG. 21 (A) Aliquots of S6K1 protein from bar 1, 2, 5 and 6 in FIG. 5B were subjected to immunoblotting with phosphorylation site specific Ab against the activation loop or anti-HA Ab. (B) The kinase activity of PKB<143-479, prephosphorylated by PDK1 in the activation loop, was determined in the presence of increasing concentrations of synthetic PRK2 tail peptides encompassing the HM, which were either nonphosphorylated (PIFtide) or phosphorylated at the tail site (pT958-PIFtide). […] (C) The kinase activity of purified PDK1 was determined in the presence of increasing concentrations of synthetic S6K tail peptide (residues 366-395) that was either phosphorylated at T389 (S371/pT389) or phosphorylated at both 5389 and 5371 (pS371/pT389). Kinase activity is expressed as percent, and data are means+/−SD of 3 independent experiments. (D) Synthetic S371/pT389 S6K tail peptide and pS371/pT389 S6K tail peptide were biotinylated and used to coat streptavidin Sensor Chips. PDK150-360 was injected at different concentrations (0.05-5.4 mM) onto the peptide coated chips. In the inserts, the kinetic constants were obtained by fitting the data to a hyperbola using kaleidagraph software. Representative results from one of several experiments are shown.

GST-S6K11-365 (Rattus norvegicus, UniProt P67999), sequence (P67999 24-388): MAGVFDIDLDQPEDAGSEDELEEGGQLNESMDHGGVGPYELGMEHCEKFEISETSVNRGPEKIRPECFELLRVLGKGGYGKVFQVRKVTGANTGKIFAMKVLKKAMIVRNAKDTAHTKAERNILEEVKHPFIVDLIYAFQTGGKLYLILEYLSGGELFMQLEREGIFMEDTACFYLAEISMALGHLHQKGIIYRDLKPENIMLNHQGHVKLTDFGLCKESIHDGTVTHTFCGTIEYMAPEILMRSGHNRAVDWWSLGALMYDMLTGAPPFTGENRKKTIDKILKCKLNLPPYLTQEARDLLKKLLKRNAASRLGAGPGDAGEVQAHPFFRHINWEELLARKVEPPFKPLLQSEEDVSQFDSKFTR

REPRILSEEEQEMFRDFDYIADWC [PIFtide, reference compound]
increase of PDK1 stability to temperature [1]: 10 °C

S371/T389: synthetic S6K1 tail peptide (residues 366-395), non-phosphorylated
specific binding of S6K11-365 or S6K11-365K144N (in words) [2]: No specific binding

S371/pT389: synthetic S6K1 tail peptide (residues 366-395) phosphorylated in the HM
decrease of binding of S6K11-365 to peptide by the K144N mutation [3]: no effect
activation of PDK1 by tail peptide (in words) [4]: activated to the same extent
